Assay results taken from PMC12203311, “Design, synthesis, in silico and in vitro evaluation of pyrrole–indole hybrids as dual tubulin and aromatase inhibitors with potent anticancer activities” (RSC Advances, 2025).

Tests used:
MCF7 = experiment: NCI60 five-dose screen; type: cell-based; settings: Homo sapiens, MCF7, breast cancer; for CC50: read-out: LC50 (the source's name)
SR = experiment: NCI60 five-dose screen; type: cell-based; settings: Homo sapiens, leukemia; for CC50: read-out: LC50 (the source's name)
MOLT-4 = experiment: NCI60 five-dose screen; type: cell-based; settings: Homo sapiens, MOLT-4, leukemia; for CC50: read-out: LC50 (the source's name)
[1] = test system: T47D breast cancer cell line; experiment: Cytotoxicity MTT assay, T47D; type: cell-based, human; settings: for IC50: Homo sapiens, T47D, MTT, 48 hours; for activity against T47D in two-dose screen: 10 µM and 50 µM
Procedure: (§1) T47D (ATCC HTB-133) was purchased from Biomedia (Thailand) Co., LTD. L929 (ATCC CCL-1) was received as a gift from Prof. Tanapat Palaga, Department of Microbiology, Faculty of Science, Chulalongkorn University, Bangkok, Thailand. The cells were cultured in Dulbecco's Modified Eagle's Medium (DMEM; Gibco) supplemented with 10% fetal bovine serum (FBS; HyClone), 100 U mL^−1 penicillin and 100 µg mL^−1 streptomycin (Gibco) at 37 °C with 5% CO2.
(§2) The antiproliferative activity was determined by MTT assay. Briefly, the cells were plated into a 96-well microplate at the density of 10 000 cells per well. The cells were allowed to grow overnight before treated with the solutions of compounds in culture medium at the designated concentrations for 48 hours. The medium was then replaced with MTT solution (0.5 mg mL^−1 MTT in culture medium) and incubated for 3 hours. A 100 µL of DMSO was used to dissolve the produced formazan. Absorbance at 570 nm was then measured using a microplate reader (Varioskan™ LUX multimode microplate reader, Thermo Scientific™). Percent viability was calculated relative to the vehicle control (DMSO).

M14 = experiment: NCI60 five-dose screen; type: cell-based; settings: Homo sapiens, M14, melanoma; for CC50: read-out: LC50 (the source's name)
U251 = experiment: NCI60 five-dose screen; type: cell-based; settings: Homo sapiens, U-251, U251, CNS cancer; for CC50: read-out: LC50 (the source's name)
SF-539 = experiment: NCI60 five-dose screen; type: cell-based; settings: Homo sapiens, SF-539, CNS cancer; for CC50: read-out: LC50 (the source's name)
[2] = Cytotoxicity MTT assay, L929; type: cell-based, mouse; settings: mouse, L929 fibroblast cells; MTT, 48 hours
Procedure: as §1, §2

[3] = test system: L929 normal mouse fibroblast cell line; experiment: Cytotoxicity MTT assay, L929; type: cell-based; settings: for Selectivity index (SI): IC50 (L929)/IC50 (T47D)
Procedure: as §1, §2

porcine brain tubulin = target: T1, porcine brain tubulin (Sus scrofa, UniProt P02550+P02554); experiment: Tubulin polymerisation assay (fluorescence-based); type: biochemical; settings: 10 µM, 37 °C
T1 construct: a solution containing porcine brain tubulin (2 mg mL^−1); purchased Cytoskeleton BK011P; host or cells: porcine brain (tissue-purified)
T1 sequence (P02554 whole entry): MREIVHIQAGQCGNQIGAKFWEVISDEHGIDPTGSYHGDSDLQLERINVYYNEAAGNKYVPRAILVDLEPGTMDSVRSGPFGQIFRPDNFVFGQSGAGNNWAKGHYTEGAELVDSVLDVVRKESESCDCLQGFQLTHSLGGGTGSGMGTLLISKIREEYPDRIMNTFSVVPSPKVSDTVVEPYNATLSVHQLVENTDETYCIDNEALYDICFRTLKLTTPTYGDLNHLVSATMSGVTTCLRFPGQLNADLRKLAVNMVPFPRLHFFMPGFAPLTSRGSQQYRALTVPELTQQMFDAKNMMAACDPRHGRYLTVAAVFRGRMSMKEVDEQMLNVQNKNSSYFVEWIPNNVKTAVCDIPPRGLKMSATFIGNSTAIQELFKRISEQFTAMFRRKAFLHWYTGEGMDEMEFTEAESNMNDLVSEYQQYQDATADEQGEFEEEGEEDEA
T1 sequence (P02550 whole entry): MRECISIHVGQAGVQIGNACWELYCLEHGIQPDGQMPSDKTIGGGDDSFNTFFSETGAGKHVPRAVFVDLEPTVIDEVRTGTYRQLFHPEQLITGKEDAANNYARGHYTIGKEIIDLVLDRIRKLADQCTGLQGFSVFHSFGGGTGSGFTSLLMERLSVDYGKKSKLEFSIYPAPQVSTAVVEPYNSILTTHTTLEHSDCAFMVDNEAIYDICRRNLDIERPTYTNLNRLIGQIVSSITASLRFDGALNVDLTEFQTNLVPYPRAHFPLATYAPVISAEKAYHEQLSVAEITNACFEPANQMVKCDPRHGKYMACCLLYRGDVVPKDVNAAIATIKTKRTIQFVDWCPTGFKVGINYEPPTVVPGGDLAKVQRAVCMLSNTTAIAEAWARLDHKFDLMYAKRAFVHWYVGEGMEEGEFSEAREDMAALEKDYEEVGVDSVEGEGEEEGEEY
Procedure: The tubulin polymerisation experimental protocol followed the method described in this literature.[28] The experimental was using fluorescence-based assay kit (Cytoskeleton, catalog no. BK011P). In Brief, 5 µL of test compounds was added to a 96-well plate, then mix with 50 µL of a solution containing porcine brain tubulin (2 mg mL^−1) in buffer with 20% glycerol and 1 mM GTP. A microplate reader (Varioskan™ LUX multimode microplate reader, Thermo Scientific™) was used to measure fluorescence intensity every 60 seconds for 60 minutes, with excitation at 360 nm and emission at 450 nm, maintained at 37 °C throughout the experiment.

Row | RFU in tubulin polymerization assay (porcine brain tubulin) [arbitrary units] | tubulin inhibition (porcine brain tubulin) | SMILES | GI50 (MCF7) [µM] | CC50 (MCF7) [µM] | GI50 (SR) [µM] | CC50 (SR) [µM] | GI50 (MOLT-4) [µM] | CC50 (MOLT-4) [µM] | IC50 [1] [µM] | GI50 (M14) [µM] | CC50 (M14) [µM] | GI50 (U251) [µM] | CC50 (U251) [µM] | GI50 (SF-539) [µM] | CC50 (SF-539) [µM] | IC50 at 48 h [2] [µM] | Selectivity index (SI) [3] | activity against T47D in two-dose screen [1] | L929 cell survival ([3]; 50 µM single concentration) [%] | L929 toxicity at single concentration ([3]; 50 µM single concentration)
1 | – | – | CCOC(=O)c1c[nH]c(/C=N/NC(=O)c2[nH]c3ccc(Br)cc3c2-c2ccccc2)c1 [Derivative 3j, Ethyl (E)-5-((2-(5-bromo-3-phenyl-1H-indole-2-carbonyl)hydrazono)methyl)-1H-pyrrole-3-carboxylate] | 2.76 | 50.2 | 0.948 | > 100 | 2.1 | 53.4 | 10.4 ± 2.9 | 2.39 | 50.3 | 2.66 | 40.6 | 2.26 | 19.4 | 12.2 ± 1 | 1.17 | – | – | –
2 | – | – | O=C(N/N=C/c1ccc(C(=O)N2CCOCC2)[nH]1)c1[nH]c2ccc(Br)cc2c1-c1ccccc1 [Derivative 3n, (E)-5-Bromo-N′-((5-(morpholine-4-carbonyl)-1H-pyrrol-2-yl)methylene)-3-phenyl-1H-indole-2-carbohydrazide] | 2.46 | 77.8 | 0.405 | 38.9 | 1.5 | 20.8 | 5.4 ± 4.8 | 1.92 | 64.2 | 3.1 | 84.7 | 2.23 | 34.9 | 21.8 ± 11.5 | 4.04 | – | – | –
3 | ~50 | – | O=C(N/N=C/c1ccc([N+](=O)[O-])[nH]1)c1[nH]c2ccc(Br)cc2c1-c1ccccc1 [Derivative 3p, (E)-5-Bromo-N′-((5-nitro-1H-pyrrol-2-yl)methylene)-3-phenyl-1H-indole-2-carbohydrazide] | 0.394 | 39 | 0.354 | > 100 | 0.537 | > 100 | – | 0.652 | 37 | 0.987 | 39.2 | 0.389 | 28.1 | – | – | weak activity | – | –
4 | – | no tubulin inhibition properties | O=C(N/N=C/c1cc([N+](=O)[O-])c[nH]1)c1[nH]c2ccc(Br)cc2c1-c1ccccc1 [Derivative 3q, (E)-5-Bromo-N′-((4-nitro-1H-pyrrol-2-yl)methylene)-3-phenyl-1H-indole-2-carbohydrazide] | 0.354 | > 100 | 0.405 | > 100 | 0.657 | > 100 | – | 0.574 | > 100 | 0.574 | 66.8 | 0.822 | > 100 | – | – | weak activity | – | –
5 | – | – | Cc1[nH]c(/C=N/NC(=O)c2[nH]c3ccc(Br)cc3c2-c2ccccc2)c(C)c1[N+](=O)[O-] [Derivative 3r, (E)-5-Bromo-N′-((3,5-dimethyl-4-nitro-1H-pyrrol-2-yl)methylene)-3-phenyl-1H-indole-2-carbohydrazide] | 2.57 | 29.9 | 2.04 | > 100 | 2.29 | > 100 | 12.3 ± 0.3 | 2.54 | 36.3 | 1.85 | 13.4 | 3.51 | 35.7 | – | – | – | > 80 | — ^c (No toxicity observed at 50 µM single concentration (>80% cell survival).)
6 | – | – | CCOC(=O)c1cc(/C=N/NC(=O)c2[nH]c3ccc(Br)cc3c2-c2ccccc2)c[nH]1 [Derivative 3v, Ethyl (E)-4-((2-(5-bromo-3-phenyl-1H-indole-2-carbonyl)hydrazono)methyl)-1H-pyrrole-2-carboxylate] | 3.03 | 40.3 | – | – | 3.91 | > 100 | 24.9 ± 8.4 | 3.54 | 41.3 | 3.8 | 37.6 | 2.02 | 13.5 | 90.1 ± 40.3 | 3.62 | – | – | –
